We go through 69 compounds from PubChem BioAssay AID1850 (Southern Research Specialized Biocontainment Screening …, 2009).

The assay deals with Salmonella Typhi PhoP-promoter GFP reporter, fluorescence, 4 h. Nature of the assay: PhoP regulon inhibitors, Salmonella typhi PhoP promoter GFP reporter, confirmatory (AID 1850).

Structures are written as SMILES. pIC50: −log10 of the molar value. Where “and” joins values, the source holds several entries; their conditions need not be identical. Identical values can stand only once.

As usually defined, the pIC50 is the IC50 on a negative log10 scale, so that one unit is a factor of ten. In the case of `O=C(CN1C2=NCCCN2c2ccccc21)c1ccc(Br)s1`, the pIC50 is 3.83.

On to `Fc1ccc(CCNCc2ccccc2Cl)cc1`, for which the negative-log IC50 (pIC50) is 4.13.

For the compound `O=C(CCN1CCN(c2ccccc2)CC1)N/N=C/c1ccc([N+](=O)[O-])o1`, the negative-log IC50 (pIC50) was 3.86.

For `COc1ccc(/C=N/Nc2cc(C)nc3ccc(Br)cc23)cc1`, the pIC50 was 4.72.

On to `Cc1ccc(C(c2cc(Cl)c3cccnc3c2O)N2CCN(C)CC2)cc1` (centres undefined), for which the pIC50 was 4.43.

For `CCCCn1c(NS(=O)(=O)c2ccccc2)c(C(=O)OCC)c2nc3ccccc3nc21`, the pIC50 was 4.46.

Regarding `Clc1ccc2[nH]c3c(c2c1)CCc1cn[nH]c1-3`, the pIC50 is 4.10.

Take `C#CCOCCOCCOCCNc1nc(N2CCN(C(=O)CCCCCCCCCCNC(=O)[C@H](CCCCN)n3cc(C)nn3)CC2)nc(N2CCN(C(=O)CCCCCCCCCCNC(=O)[C@H](CCCN=C(N)N)n3cc(C[C@@H](C)CC)nn3)CC2)n1`: the negative-log IC50 (pIC50) was 4.49.

As for `Cc1ccc(NC(=O)CSC(N)=O)cc1Cl`, the pIC50 is 4.98.

Turning to `O=C(CSc1nnc(-c2ccccc2)n1-c1ccc(Cl)cc1)NC1CCS(=O)(=O)C1` (centres undefined), the negative logarithm of the IC50 (pIC50) was 4.13.

As to `O=c1ccc2cc3c([nH]c4ccc(Br)cc43)oc-2c1O`, the negative logarithm of the IC50 (pIC50) is 4.62.

For the compound `O[C@@H](c1cc(C(F)(F)F)nc2c(C(F)(F)F)cccc12)[C@H]1CCCCN1`, the pIC50 is 4.40.

Regarding `COc1cc([N+](=O)[O-])cc(/C=N/NC(=O)C(O)(c2ccccc2)c2ccccc2)c1O`, the pIC50 is 3.97.

For `CC(=O)Nc1cccc(NC(=O)Nc2ccc(F)cc2F)c1`, the negative logarithm of the IC50 (pIC50) is 4.39.

Turning to `Cc1ccc(OCC(=O)N/N=C/c2ccc([N+](=O)[O-])o2)cc1`, the negative-log IC50 (pIC50) was 4.66.

In the case of `CCN1/C(=C/C=C/C=C/c2sc3ccccc3[n+]2CC)Sc2ccccc21`, the pIC50 was 4.88.

Regarding `CCCCOc1ccc(CN=C(N)N)cc1Cl`, the negative logarithm of the IC50 (pIC50) is 3.87.

For the compound `COc1ccc2c(C(=O)CCl)c[nH]c2c1`, the pIC50 was 4.17.

As to `CN(C)CC/C=C1\c2ccc(F)cc2Sc2cc(F)c(Cl)cc21`, the pIC50 was 4.49.

With `Cc1cc(C2CCCCC2)n(O)c(=O)c1`, the negative logarithm of the IC50 (pIC50) was 4.76.

For the compound `CNC[C@@H](Cc1ccccc1)NC[C@@H](CC1CCCCC1)NCCCc1ccccc1`, the negative-log IC50 (pIC50) is 4.42.

For `O=C(N/N=C/c1cc([N+](=O)[O-])ccc1O)c1cccc2cc[nH]c12`, the pIC50 is 4.44.

On to `CSc1ccc2c(c1)N(CCC1CCCCN1C)c1ccccc1S2` (centres undefined), for which the pIC50 is 4.13.

As for `CCOc1cccc(CNCCc2c(C)[nH]c3ccc(OC(F)(F)F)cc23)c1O`, the pIC50 is 4.40.

On to `O=[N+]([O-])c1cccc2c(N3CCCC3)ccnc12`, for which the negative-log IC50 (pIC50) is 4.57.

For the compound `Oc1ccc(CN2CCN(Cc3ccccc3)CC2)c2cccnc12`, the pIC50 is 4.48.

As to `O=C(N/N=C/c1ccc([N+](=O)[O-])o1)C1CCCC1`, the pIC50 was 4.45.

For `Cc1ccc(Nc2nc(NCCO)c3ccccc3n2)cc1C`, the pIC50 is 4.73.

Consider `c1ccc2c(NCCc3c[nH]c4ccccc34)c3ccccc3nc2c1`, for which the pIC50 is 4.44.

On to `Nc1nc2ccccc2n1Cc1ccc(Cl)c(Cl)c1`, for which the pIC50 was 4.10.

With `COc1cc(CNCCc2c[nH]c3ccccc23)ccc1OCc1ccc(F)cc1`, the negative-log IC50 (pIC50) is 4.29.

With `c1ccc(Nc2nc(NCC3CCCO3)c3ccccc3n2)cc1` (centres undefined), the negative-log IC50 (pIC50) is 5.30.

Regarding `CN1CCN(c2nc(Nc3ccc(F)cc3)nc(Nc3ccc(F)cc3)n2)CC1`, the negative logarithm of the IC50 (pIC50) was 4.09.

For `CN1CCN(c2cc3c(cc2F)c(=O)c(C(=O)O)cn3CCF)CC1`, the negative-log IC50 (pIC50) is 6.51.

In the case of `O=C(N/N=C/c1cc(O)ccc1Br)c1cccnc1`, the pIC50 was 4.41.

Consider `COc1ccc(Nc2cc(C)nc(NCc3ccccc3)n2)cc1`, for which the negative-log IC50 (pIC50) is 4.13.

For the compound `Cc1cccc(C(=O)NNC(=S)NC(=O)c2cccs2)c1`, the negative-log IC50 (pIC50) is 4.18.

In the case of `CCOC(=O)c1c(-c2ccccc2)oc2ccc(OCC(O)CNCCN(C)C)cc12` (centres undefined), the negative logarithm of the IC50 (pIC50) was 4.21.

Turning to `CCCCc1ccc(NC2=NCCCS2)cc1`, the pIC50 is 3.85.

Take `Cc1ccc(C(=O)N/C(=C\c2ccc(-c3ccc(Cl)cc3)o2)C(=O)NCCCN(C)C)cc1`: the negative logarithm of the IC50 (pIC50) was 4.42.

Consider `COc1ccc(CNCCc2ccc(Cl)cc2)cc1OCc1ccccc1`, for which the pIC50 was 4.18.

`C#CCOCCOCCOCCNc1nc(N2CCN(C(=O)[C@H]([C@@H](C)CC)n3cc([C@@H](N)Cc4ccc(O)cc4)nn3)CC2)nc(N2CCN(C(=O)[C@H](Cc3cc4ccccc4[nH]3)n3cc([C@@H](N)CC(C)C)nn3)CC2)n1`: the pIC50 is 3.99.

For `Cc1nc(N)nc(N)c1CCCc1ccc(Cl)c(Cl)c1`, the negative logarithm of the IC50 (pIC50) is 4.44.

In the case of `COc1ccc(/C=N/Nc2cc(C)nc3ccccc23)cc1`, the pIC50 is 4.98.

Take `CCC(C)N1CCC2(CC1)N=c1c(c3c4c5c(C)c(O)c3c(O)c1=NC(=O)C(C)=CC=C[C@H](C)[C@H](O)[C@@H](C)[C@@H](O)[C@@H](C)[C@H](OC(C)=O)[C@H](C)[C@@H](OC)C=CO[C@@](C)(O5)C4=O)N2` (some centres undefined): the pIC50 was 5.60.

`Oc1c(Br)cc(Br)cc1C=Nc1ccc2[nH]ncc2c1`: the negative-log IC50 (pIC50) is 4.56.

For the compound `Cc1ccc(CNCCC2=CCCCC2)cc1`, the pIC50 is 4.34.

Turning to `O=[N+]([O-])c1cc(Cl)c2cccnc2c1O`, the negative-log IC50 (pIC50) is 5.52.

As to `Nc1ncn([C@@H]2O[C@H](CO)[C@@H](O)[C@H]2O)c(=O)n1`, the pIC50 is 4.37.

Take `CN(C)c1ccc(/C=C/c2ccc3ccccc3[n+]2C)cc1`: the negative logarithm of the IC50 (pIC50) was 4.73.

`O=[N+]([O-])c1cc(CN2CCN(c3cccc(C(F)(F)F)c3)CC2)c2cccnc2c1O`: the pIC50 is 4.68.

As for `O=C(NC(=S)NNC(=O)c1cccs1)c1ccco1`, the negative-log IC50 (pIC50) was 4.41.

Regarding `O=C(Nc1cccc(Cl)c1)Nc1nccs1`, the negative-log IC50 (pIC50) is 4.40.

In the case of `O=C(Cc1ccccc1)NNC(=S)NC(=O)c1cccs1`, the pIC50 is 4.33.

Consider `CCn1cc(C(=O)O)c(=O)c2cc(F)c(N3CCN(C(=S)NC(=O)c4ccccc4)CC3)cc21`, for which the pIC50 is 4.74.

As to `CN(C)CCCNc1cc(C(C)(C)C)nc2c(-c3ccccc3)cnn12`, the pIC50 is 4.50.

As to `C#CCOCCOCCOCCNc1nc(N2CCN(C(=O)CCCCCCCCCCNC(=O)[C@H](CCCCN)n3cc(CCO)nn3)CC2)nc(N2CCN(C(=O)CCCCCCCCCCNC(=O)[C@H](CCCN=C(N)N)n3cc(C[C@@H](C)CC)nn3)CC2)n1`, the negative logarithm of the IC50 (pIC50) was 4.46.

For `O=C(N/N=C\C=C\c1ccc([N+](=O)[O-])o1)c1cccs1`, the negative logarithm of the IC50 (pIC50) was 4.73.

As to `CN1CCN(CCCN2c3ccccc3Sc3ccc(Cl)cc32)CC1`, the negative logarithm of the IC50 (pIC50) is 4.25 and 4.46.

Take `CCSc1ccc2c(c1)N(CCCN1CCN(C)CC1)c1ccccc1S2`: the negative-log IC50 (pIC50) was 4.34.

For `c1ccc(-c2nc3ccccc3[nH]2)cc1`, the pIC50 was 4.32.

As for `O=C(CN1C2=NCCCN2c2ccccc21)c1ccc([N+](=O)[O-])cc1`, the pIC50 was 3.98.

Regarding `NC1CCN(c2nc3c(cc2F)c(=O)c(C(=O)O)cn3-c2ccc(F)cc2F)C1` (centres undefined), the negative-log IC50 (pIC50) was > 6.64.

With `CC(C)Oc1ccc(Cc2cnc(N)nc2N)cc1`, the pIC50 is 4.17.

Take `CC1CCc2c(N3CCC(O)CC3)c(F)cc3c(=O)c(C(=O)O)cn1c23` (centres undefined): the negative logarithm of the IC50 (pIC50) was 5.52.

On to `CCCCOc1ccc(C(=O)OC2CC(C)N(C)CC2C)cc1` (centres undefined), for which the pIC50 is 4.06.

`O=C(Nc1csc(Cl)c1)c1ccccc1`: the pIC50 was 4.60.

For `CC(C)(C)/C(O)=C/c1nc2cc(Cl)ccc2oc1=O`, the negative logarithm of the IC50 (pIC50) is 4.74.

As to `C[n+]1c2n(c3ccccc31)N=C(c1ccc(-c3ccccc3)cc1)CS2`, the negative-log IC50 (pIC50) is 4.61.
